One assay addresses MMCD (Escherichia coli, UniProt P52045). As to conditions: coupled assay, pH 7.2 and 37° C., not optimized; cited from earlier work.
Assay [1] has as its target T1, Escherichia coli methylmalonyl-CoA decarboxylase (YgfG, MMCD) (Escherichia coli, UniProt P52045).
T1 construct: made in house; host or cells: E. coli BL21 (DE3)
Kind of assay: Inhibition assays of MMCD by 4-9 (HPLC detection, kcat/Km approximation at low substrate). It counts as biochemical. The following applies: 200 μM methylmalonyl-CoA, 1 nM MMCD, pH 6.5, 25° C.; read-out: Ki (inhibition constant, competitive inhibition). How it is done:
Initially we attempted to use isothermal titration calorimetry to determine the binding affinity of our analogs to MMCD. […] Because of this secondary site causes problems with biophysical characterization of binding affinity, we used the kcat/Km approximation at low substrate concentrations for the determination of inhibition constants for our analogs. These assays gave Kis of 7.5±1.1 μM for 4, 3.8±1.6 μM for 5, 7.1±1.7 μM for 6, 10.8±2.3 μM for 7, 20.6±2.7 μM for 8 and 19.8±1.4 μM for 9. The sulfonate isosteres bind tighter than the nitro isosteres in general. Our results have been published and incorporated herein by reference in its entirety (Stunkard, L M, et al., J. Am. Chem. Soc. 2019, 141, 5121-5124).
General procedure for MMCD-His6 catalyzed activity assays. The reactions were performed in a 550 μL reaction mixture which contained 50 mM potassium phosphate buffer (KH2PO4/K2HPO4) at pH 6.5 unless otherwise noted, 10 mM MgCl2, methylmalonyl-CoA and the assay was initiated by the addition of MMCD. Reaction mixtures were incubated at 25° C., 65 μL aliquots taken at times noted below were quenched with 25 μL of 50% TFA v/v, precipitating the protein. Centrifugation at 2000 rpm at 25° C. for 10 minutes was used to pellet the protein and the supernatant was analyzed via the procedure outlined below.
General procedure for determination of methylmalonyl-CoA, propionyl-CoA and CoA concentrations in MMCD catalyzed assays. Substrate and product concentrations were determined using HPLC with detection at A254 over the 250×4.6 mm C18(2) column. The analytes were separated with a 2→25% gradient of 0.1% TFA in water→ACN over 20 min. Peak areas of substrate and products were converted to concentration by summing their areas and dividing each peak by this total to give relative percentages that were converted to concentration by adjusting to the starting concentration of methylmalonyl-CoA. This procedure gave essentially the same values as using a standard curve to generate concentrations for each peak, but enhanced reproducibility due to small differences in recovery from the reaction quenching step outlined above.
Inhibition assays of MMCD by 4-9 were performed according to the general procedure above with 200 μM methylmalonyl-CoA, 4-9 (0 μM, 2 μM, 5 μM, 20 μM, and 50 μM) and the assay was initiated by the addition of 1 nM MMCD. Aliquots were taken at the times 20s, 40s, 60s, 150s, 300s, 600s, 900s, and 1800s.
The initial rates (Vi) of decomposition of methylmalonyl-CoA were determined by fitting the progress curve data to equation (1) which describes a simple exponential decay with rate (k), time (t) and initial substrate concentration ([S]t). The rate of formation of propionyl-CoA or CoA could be fit to equation (2). The derivative at time 0 for Equation (1) divided by enzyme concentration gives the initial rates Vi as shown in equation (3). Using this method rather than linear estimation from the early data points gave similar values. However, it allowed more accurate determination of Vi at early time points. [S]=[S]t·e^−k·t Equation (1) [S]=[S]t·(1−e^k·t) Equation (2) Vi=([S]t·k)/[E] Equation (3)
Inhibition of MMCD by 4-9 was determined by fitting initial rate data to equation (6), which describes competitive inhibition and […] describes the Vi in the presence of inhibitor (Lu, J, et al., Protein Eng. Des. Sel. 2017, 30, 395-399). The values of (Vi·Vis)/(Vii−Vis) and Km/kcat were determined from the initial slopes of Vi or Vii versus substrate concentration rather than from the full assay, see Figures S5 and S9. A minimum of two concentrations were used, 20 or 50 μM of each 4-9 and the experiments were repeated at least twice.

SMILES strings stand for the structures.

T1 sequence (P52045 whole entry): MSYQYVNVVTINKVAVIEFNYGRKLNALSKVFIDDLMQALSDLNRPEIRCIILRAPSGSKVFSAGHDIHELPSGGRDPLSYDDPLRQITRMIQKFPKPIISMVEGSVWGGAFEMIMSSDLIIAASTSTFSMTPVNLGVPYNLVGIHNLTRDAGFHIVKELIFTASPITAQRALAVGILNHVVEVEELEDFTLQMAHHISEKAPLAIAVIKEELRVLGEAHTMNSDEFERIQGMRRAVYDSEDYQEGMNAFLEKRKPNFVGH
MMCD, sequence (P52045 whole entry): as above

With `C[C@@H](C(=O)O)C(=O)SCCNC(=O)CCNC(=O)[C@H](O)C(C)(C)COP(=O)(O)OP(=O)(O)OC[C@H]1O[C@@H](n2cnc3c(N)ncnc32)[C@H](O)[C@@H]1OP(=O)(O)O` [(2S)-methylmalonyl-CoA], on MMCD, the Km (commonly the concentration of substrate that gives half-maximal velocity) was 13.6 µM and the kcat – broadly, the maximal rate divided by the concentration of active sites – is 1.6 s⁻¹.
For the compound `CC(C(=O)SCCNC(=O)CCNC(=O)C(O)C(C)(C)COP(=O)(O)OP(=O)(O)OCC1OC(n2cnc3c(N)ncnc32)C(O)C1OP(=O)(O)O)S(=O)(=O)O` (centres unmarked) [compound 4, 2-sulfonatepropionyl-S-CoA], the Ki (as a rule, a dissociation constant, usually derived from enzyme kinetics or from competition with a known ligand) in assay [1] is 7.5 ± 1.1 µM.
Same read-out and setting: the value for `CC(C(=O)OCCNC(=O)CCNC(=O)C(O)C(C)(C)COP(=O)(O)OP(=O)(O)OCC1OC(n2cnc3c(N)ncnc32)C(O)C1OP(=O)(O)O)S(=O)(=O)O` (centres unmarked) [compound 5, 2-sulfonatepropionyl-oxa(dethia)CoA] was 3.8 ± 1.6 µM; that for `CC(C(=O)NCCNC(=O)CCNC(=O)C(O)C(C)(C)COP(=O)(O)OP(=O)(O)OCC1OC(n2cnc3c(N)ncnc32)C(O)C1OP(=O)(O)O)S(=O)(=O)O` (centres unmarked) [compound 6, 2-sulfonatepropionyl-amino(dethia)CoA] was 7.1 ± 1.7 µM; that for `CC(C(=O)SCCNC(=O)CCNC(=O)[C@H](O)C(C)(C)COP(=O)(O)OP(=O)(O)OC[C@H]1O[C@@H](n2cnc3c(N)ncnc32)[C@H](O)[C@@H]1OP(=O)(O)O)[N+](=O)[O-]` (some centres unmarked) [compound 7, 2-nitropropionyl-S-CoA] was 10.8 ± 2.3 µM.
On the same count and under the same terms, the value for `CC(C(=O)OCCNC(=O)CCNC(=O)[C@H](O)C(C)(C)COP(=O)(O)OP(=O)(O)OC[C@H]1O[C@@H](n2cnc3c(N)ncnc32)[C@H](O)[C@@H]1OP(=O)(O)O)[N+](=O)[O-]` (some centres unmarked) [compound 8, 2-nitropropionyl-oxa(dethia)CoA] was 20.6 ± 2.7 µM; that for `CC(C(=O)NCCNC(=O)CCNC(=O)[C@H](O)C(C)(C)COP(=O)(O)OP(=O)(O)OC[C@H]1O[C@@H](n2cnc3c(N)ncnc32)[C@H](O)[C@@H]1OP(=O)(O)O)[N+](=O)[O-]` (some centres unmarked) [compound 9, 2-nitropropionyl-amino(dethia)CoA] was 19.8 ± 1.4 µM.

Source of the values: patent publication US11008362B2, “Malonyl-coenzyme A mimics as fatty acid synthase inhibitors and methods of use” (priority 2018, dated 2021).
